Key:
Format in all cases: in vivo
[1] = tested on: denervation-induced atrophy of skeletal muscle; assay: adrenalectomized rat sciatic nerve denervation-induced atrophy model; conditions: male adrenalectomized rats, 0.003-0.03 mg/kg s.c. twice daily + 30 mg/kg theophylline, nine days
Method: Legend: A—physiological saline (control); B—sauvagine (0.003 mg/kg)+theophylline; C—sauvagine (0.01 mg/kg)+theophylline; D—sauvagine (0.03 mg/kg)+theophylline; #—p≦0.05 compared to corresponding controls. Following denervation of the right sciatic nerve, male adrenalectomized rats (adrenalectomized rats were used to remove the skeletal muscle atrophy-inducing effects of activation of the HPA axis via agonisms of the CRF1R) were injected subcutaneously in the midscapular region twice daily, with either sauvagine or vehicle control (physiological saline) for nine days at the doses shown above. Sauvagine was co-administered with 30 mg/kg theophylline. On day nine, the tibialis anterior, extensor digitorum longus (EDL), soleus, medial gastrocnemius, and plantaris muscles were removed and weighed to determine the degree of atrophy.
(§1) The sciatic nerve denervation atrophy model involves anesthetizing the animal followed by the surgical removal of a short segment of either the right or left sciatic nerve, e.g., in mice the sciatic nerve is isolated approximately at the midpoint along the femur and a 3-5 mm segment is removed. This denervates the lower hind limb musculature resulting in atrophy of these muscles. Typically, innervation to the biceps femoris is left intact to provide satisfactory motion of the knee for virtually normal ambulation. Typically, in untreated animals, muscle mass of the denervated muscles is reduced 30-50% ten days following denervation. Following denervation, test compounds are administered e.g., by injection or by continuous infusion, e.g., via implantation of an osmotic minipump (e.g., Alzet, Palo Alto, Calif.), to determine their effect on denervation induced skeletal muscle atrophy. At various times following denervation, the animals are euthanized and lower leg muscles are dissected rapidly from both the denervated and nondenervated legs, the muscles, cleaned of tendons and connective tissue, are weighed. The extent of atrophy in the affected muscles is analyzed, for example, by measuring muscle mass, muscle cross-sectional area, myofiber cross-sectional area or contractile protein content.

[2] = tested on: denervation-induced atrophy of skeletal muscle; assay: mouse sciatic nerve denervation atrophy model
Method: Legend: A—physiological saline (control); B—sauvagine (0.01 mg/kg)+theophylline; C—sauvagine (0.03 mg/kg)+theophylline; D—sauvagine (0.1 mg/kg)+theophylline; E—sauvagine (1.0 mg/kg)+theophylline; *—p≦0.05 compared to saline. Following denervation of the right sciatic nerve, male mice were injected subcutaneously in the midscapular region twice daily with sauvagine, at the doses indicated above or vehicle control (physiological saline) for nine days. Sauvagine was co-administered with 30 mg/kg theophylline. On day nine, the medial gastrocnemius muscle was removed and weighed to determine the degree of atrophy.
Legend: A—water (control); B—sauvagine (0.1 mg/kg/d); C—sauvagine (0.3 mg/kg/d); D—sauvagine (1.0 mg/kg/d); *—p≦0.05 compared to water. Following denervation of the right sciatic nerve, male mice were dosed with either sauvagine or vehicle control (physiological saline) by continuous infusion using an Alzet osmotic minipump at 5 μl/hr until the end of the experimental period (without additional theophylline). The daily delivered dose of sauvagine is indicated above. Minipump implantation was performed at the time of sciatic nerve denervation. On day nine the tibialis anterior muscle was removed and weighed to determine the degree of atrophy.
Legend: A—water (control); B—sauvagine (1 mg/kg/d); C—urocortin (1.0 mg/kg/d); *—p≦0.05 compared to water. Following denervation of the right sciatic nerve, male mice were dosed with the above indicated agents or vehicle control (physiological saline) by continuous infusion using an Alzet osmotic minipump at 5 μl/hr until the end of the experimental period (without additional theophylline). The daily delivered dose of the agents is indicated above. Minipump implantation was performed at the same time as the sciatic nerve denervation. On day nine the tibialis anterior muscle was removed and weighed to determine the degree of atrophy.
Legend: A-C—wild-type mice; D-F—CRF2R knockout mice. A and D—water (control); B and E—sauvagine (0.3 mg/kg/d); C and F—sauvagine (1.0 mg/kg/d); *—p≦0.05 compared to saline. Following denervation of the right sciatic nerve, female wild-type and CRF2R knockout mice were dosed with sauvagine or vehicle control by continuous infusion using an Alzet osmotic minipump at 5 μl/hr for nine days at the daily delivered dose indicated above. On day nine, the tibialis anterior muscle was removed and weighed to determine the degree of atrophy.
as §1

[3] = tested on: glucocorticoid-induced muscle atrophy; assay: mouse glucocorticoid-induced atrophy model; conditions: male mice, dexamethasone 1.2 mg/kg/d in drinking water, 0.1-1.0 mg/kg/d by osmotic minipump, nine days
Method: Legend: A—water only with no dexamethasone included in drinking water (non-atrophied control); B—water+dexamethasone (atrophied control); C—sauvagine (0.1 mg/kg/d)+dexamethasone; D—sauvagine (0.3 mg/kg/d)+dexamethasone; E—sauvagine (1.0 mg/kg/d)+dexamethasone; *—p≦0.05 compared to water; #—p≦0.05 compared to water+dexamethasone. Following the addition of the glucocorticoid, dexamethasone, to the drinking water (1.2 mg/kg/d), male mice were dosed with the above indicated agents or vehicle control (physiological saline) by continuous infusion using an Alzet osmotic minipump at 5 μl/hr until the end of the experimental period (without additional theophylline). The daily delivered dose of sauvagine is as indicated above. Minipump implantation was performed at the time of initiation of dexamethasone exposure. Nine days following the initiation of dosing sauvagine, the medial gastrocnemius and tibialis anterior muscles were removed and weighed to determine the degree of atrophy.
The glucocorticoid-induced atrophy model involves the administration of a glucocorticoid to the test animal, e.g., 1.2 mg/kg/day of dexamethasone in the drinking water. […] At various times following glucocorticoid administration, the extent of atrophy in the affected muscles is analyzed as described above for the denervation model.

CC[C@H](C)[C@H](NC(=O)[C@@H](NC(=O)[C@H](CC(=O)O)NC(=O)[C@H](CC(C)C)NC(=O)[C@H](CC(C)C)NC(=O)[C@H](CC(C)C)NC(=O)[C@H](CCCNC(=N)N)NC(=O)[C@H](CC(N)=O)NC(=O)[C@H](CC(N)=O)NC(=O)[C@H](C)NC(=O)[C@H](C)NC(=O)[C@H](CCC(N)=O)NC(=O)[C@H](CCC(N)=O)NC(=O)[C@H](CCCCN)NC(=O)[C@H](CCC(=O)O)NC(=O)[C@H](CCCCN)NC(=O)[C@H](CCC(=O)O)NC(=O)[C@H](CCC(N)=O)NC(=O)[C@H](CCCCN)NC(=O)[C@H](CCC(=O)O)NC(=O)[C@@H](NC(=O)[C@H](CCC(=O)O)NC(=O)[C@@H](NC(=O)[C@H](CCSC)NC(=O)[C@H](CCCCN)NC(=O)[C@H](CCCNC(=N)N)NC(=O)[C@H](CC(C)C)NC(=O)[C@H](CC(C)C)NC(=O)[C@H](CCC(=O)O)NC(=O)[C@H](CC(C)C)NC(=O)[C@H](CO)NC(=O)[C@H](CC(C)C)NC(=O)[C@H](CC(=O)O)NC(=O)[C@@H](NC(=O)[C@H](CO)NC(=O)[C@@H](NC(=O)[C@@H]1CCCN1C(=O)[C@@H]1CCCN1C(=O)CNC(=O)[C@@H]1CCC(=O)N1)[C@@H](C)CC)[C@@H](C)CC)[C@@H](C)CC)[C@@H](C)CC)[C@@H](C)O)C(N)=O [sauvagine]
denervation-induced atrophy of the tibialis anterior muscle (muscle weight) ([1]; FIG. 7A): inhibits denervation-induced atrophy | denervation-induced atrophy of the EDL muscle (muscle weight) ([1]; FIG. 7B): inhibits denervation-induced atrophy | hypertrophy of the non-denervated EDL muscle ([1]; FIG. 7B): statistically significant hypertrophy | denervation-induced atrophy of the soleus muscle (muscle weight) ([1]; FIG. 7C): inhibits denervation-induced atrophy | denervation-induced atrophy of the medial gastrocnemius muscle (muscle weight) ([1]; FIG. 7D): inhibits denervation-induced atrophy | denervation-induced atrophy of the plantaris muscle (muscle weight) ([1]; FIG. 7E): inhibits denervation-induced atrophy | denervation-induced atrophy of the medial gastrocnemius muscle (muscle weight) ([2]; FIG. 1, male mice, 0.01-1.0 mg/kg s.c. twice daily + 30 mg/kg theophylline, nine days): inhibits denervation-induced atrophy | denervation-induced atrophy of the tibialis anterior muscle (muscle weight) ([2]; FIG. 2, male mice, 0.1-1.0 mg/kg/d continuous infusion by osmotic minipump, no theophylline, day nine): inhibits denervation-induced atrophy | denervation-induced atrophy of the tibialis anterior muscle (muscle weight) ([2]; FIG. 5, male mice, 1 mg/kg/d continuous infusion by osmotic minipump, no theophylline, day nine): inhibit denervation-induced atrophy | denervation-induced atrophy of the tibialis anterior muscle (muscle weight) ([2]; FIG. 8, female wild-type mice, 0.3 and 1.0 mg/kg/d by osmotic minipump, nine days): inhibits the atrophy | glucocorticoid-induced atrophy of the tibialis anterior muscle (muscle weight) ([3]; FIG. 3A): inhibits glucocorticoid-induced muscle atrophy | glucocorticoid-induced atrophy of the medial gastrocnemius muscle (muscle weight) ([3]; FIG. 3B): inhibits glucocorticoid-induced muscle atrophy

— US7572768B2, “Methods for identifying compounds for regulating muscle mass or function using corticotropin releasing factor receptors” (priority 2001, dated 2009)
